“Also recorded” adds a separate entry of the source. Read-outs that look alike come from different tables or passages of the source.
Legend:
[1] = target: T1, ecFoID (Escherichia coli, UniProt P24186); assay: Surface plasmon resonance assay; format: binding, E. coli
T1 construct: His-tag (vector pHis-TEV); made in house; host or cells: E. coli BL21 (DE3)
Method: (§1) All surface plasmon resonance (SPR) experiments described in this study were performed on a Biacore X100 system. Different FoIDs with or without His-tag were coupled on CM5 sensor chips (GE Healthcare) by the amine coupling method using a kit from GE Healthcare Life Sciences (Freiburg, Germany). A pH scouting process was performed before protein immobilization to test the most appropriate buffer and the protein concentration for protein coupling. Finally, 20 μg/mL of ecFoID in 10 mM maleate buffer (pH 6.8), 30 μg/mL of ecFoID Q98H in 10 mM maleate buffer (pH 6.3), 40 μg/mL of ecFoID K54N in 10 mM maleate buffer (pH 5.8), 20 μg/mL of spFoID in 10 mM maleate buffer (pH 6.0) and 15 μg/mL of MTHFD2 (His-tag cleaved) in 10 mM maleate buffer (pH 6.8) were used for coupling. In the protein immobilization procedure, the contact time was calculated based on the pH scouting results to achieve -3000-5000 relative resonance units (RU). The buffer used in the SPR assays was 1×HBS-P buffer (10 mM HEPES pH 7.4, 150 mM NaCl, 0.05% Tween 20). The 1 mM stock solution of carolacton was prepared in 1×HBS-P buffer and diluted to different concentration ranges by two-fold serial dilution. In the SPR assay, the association time was 180 s and the dissociation time was 600 s. Data analysis was performed using the Biacore evaluation software. The SPR curves were exported to be re-plotted in OriginPro 2016 (OriginLab, Northampton, Mass., US).

[2] = target: T2, ecFoID K54N (Escherichia coli, UniProt P24186, K54N); assay: Surface plasmon resonance assay; format: binding, E. coli
T2 construct: made in house; host or cells: E. coli BL21 (DE3)
Method: as §1

[3] = target: T3, ecFoID Q98H (Escherichia coli, UniProt P24186, Q98H); assay: Surface plasmon resonance assay; format: binding, E. coli
T3 construct: made in house; host or cells: E. coli BL21 (DE3)
Method: as §1

[4] = test system: HCT 116 cells; assay: CellTiter-Glo luminescent cell viability assay; format: cell-based, human; conditions: for IC50: Homo sapiens, HCT-116, 72 h, 72 h, read-out: IC50 inhibition of cancer cell proliferation
Method: (§2) To evaluate the effects of one compound on 7 cell lines with a CellTiter-Glo Luminescent Cell Viability Assay. Cells were treated with compounds for 72 hours at 37° C./5% CO2 incubator. Compound stock concentration was 20 mM, concentrations to be assayed 100\50\15\10.5\0.1\0.05\0.01\0.005 pM. • i) Materials and Reagents
(§3) a) Cells in log-phase are collected and counted. Cell suspensions are added to each well of 384-w plate at a suitable density. The margin wells are filled with PBS.
(§4) b) Test compound at various concentrations are added in duplicates
(§5) c) The cells were incubated for 72 h in 370/5% CO 2 incubator.
(§6) d) After incubation, CellTiter-Glo® Reagent is added to each test well and shack for 2 minutes on an orbital shaker.
(§7) e) The plates are shortly centrifuged at 90×g for 30 s and incubated at room temperature for additional 10 minutes to stabilize the luminescent signal.
(§8) f) Luminescence signals are detected on PHERAstar Plus.
(§9) g) Data is collected in Microsoft excel forms and analyzed with GraphPad Prism v.6 software. • iii) Data analysis
(§10) The potential effect of the testing compounds an cell proliferation was calculated by the formula below: Inhibition %=[…]
(§11) Since hsMTHFD2 is expressed in human mitochondria and overexpressed in many tumor cells we next aimed to evaluate its potential as an anticancer compound. To this end IC50 values for carolacton were determined for six different cancer cell lines as well as HUVEC cells as primary non-tumor cells. The CellTiter-Glo luminescent cell viability assay (Promega) was used on triplicate cultures grown for three days. Each cell line was tested in three independent experiments (performed at different times and by different experimentators): First, using natural carolacton purified from culture supernatants of Sorangium cellulosum and solved in methanol; second, using carolacton synthesized de novo according to Schmidt et al. 2012 and solved in DMSO; and third, using synthetic carolacton synthesized de novo according to Schmidt et al. 2012 and solved in methanol.

[5] = test system: NCI-N87 cells; assay: CellTiter-Glo luminescent cell viability assay; format: cell-based, human; conditions: for IC50: Homo sapiens, NCI-N87, 72 h, 72 h, read-out: IC50 inhibition of cancer cell proliferation
Method: as §2, §3, §4, §5, §6, §7, §8, §9, §10, §11

[6] = test system: SW626 cells; assay: CellTiter-Glo luminescent cell viability assay; format: cell-based, human; conditions: for IC50: Homo sapiens, SW626, 72 h, 72 h, read-out: IC50 inhibition of cancer cell proliferation
Method: as §2, §3, §4, §5, §6, §7, §8, §9, §10, §11

[7] = test system: THP-1 cells; assay: CellTiter-Glo luminescent cell viability assay; format: cell-based, human; conditions: for IC50: Homo sapiens, THP-1, 72 h, 72 h
Method: as §2, §3, §4, §5, §6, §7, §8, §9, §10, §11

[8] = test system: U-937 cells; assay: CellTiter-Glo luminescent cell viability assay; format: cell-based, human; conditions: for IC50: Homo sapiens
Method: as §2, §3, §4, §5, §6, §7, §8, §9, §10, §11

CO[C@H](CC(=O)O)[C@@H](C)C(=O)[C@H](C)/C=C(\C)[C@H]1OC(=O)[C@H](O)[C@H](O)/C=C/[C@H](C)CCC[C@@H]1C [Carolacton, carolacton]
Kd [1]: 10 nM
binding (SPR), in words [2]: no binding; also recorded: does not bind
Kd [3]: 20 µM
binding (SPR), in words ([3]; ecFoID Q98H): weak binding
IC50 ([4]; natural C, methanol): 530 nM
IC50 ([4]; synthetic C, DMSO): 286 nM
IC50 ([4]; synthetic C, methanol): 521 nM
Bottom ([4]; natural C, methanol): −1.927
Top ([4]; natural C, methanol): 43.89
Bottom ([4]; synthetic C, DMSO): −1.609
Top ([4]; synthetic C, DMSO): 63.98
Bottom ([4]; synthetic C, methanol): −2.614
Top ([4]; synthetic C, methanol): 63.68
IC50 ([5]; natural C, methanol): 225 nM
IC50 ([5]; synthetic C, DMSO): > 100000 nM
IC50 ([5]; synthetic C, methanol): 352 nM
Bottom ([5]; natural C, methanol): 11.93
Top ([5]; natural C, methanol): 41.34
Bottom ([5]; synthetic C, methanol): 6.683
Top ([5]; synthetic C, methanol): 23.87
IC50 ([6]; natural C, methanol): 365 nM
IC50 ([6]; synthetic C, DMSO): 908 nM
IC50 ([6]; synthetic C, methanol): 992 nM
Bottom ([6]; natural C, methanol): 1.167
Top ([6]; natural C, methanol): 42.81
Bottom ([6]; synthetic C, DMSO): 5.588
Top ([6]; synthetic C, DMSO): 43.17
Bottom ([6]; synthetic C, methanol): 3.62
Top ([6]; synthetic C, methanol): 47.2
IC50 ([7]; THP 1, synthetic C, methanol, read-out: IC50 inhibition of cancer cell proliferation): 49.6 µM
IC50 ([7]; THP-1, natural C, methanol, read-out: IC50 inhibition of cancer cell proliferation): 8.82 µM
IC50 ([7]; read-out: IC50 inhibition of cancer cell proliferation, THP-1, synthetic C, DMSO): 103 µM
Bottom ([7]; THP 1, synthetic C, methanol): 14.83
Top ([7]; THP 1, synthetic C, methanol): 67.53
Bottom ([7]; THP-1, natural C, methanol): 2.537
Top ([7]; THP-1, natural C, methanol): 75.92
Bottom ([7]; THP-1, synthetic C, DMSO): −4.341
Top ([7]; THP-1, synthetic C, DMSO): =100.0
IC50 ([8]; U-937, 72 h, U-937, natural C, methanol, 72 h, read-out: IC50 inhibition of cancer cell proliferation): 10.7 nM
IC50 ([8]; U-937, 72 h, U-937, synthetic C, DMSO, 72 h, read-out: IC50 inhibition of cancer cell proliferation): 44.7 nM
IC50 ([8]; U-937, 72 h, U-937, synthetic C, methanol, 72 h, read-out: IC50 inhibition of cancer cell proliferation): 6.84 nM
IC50 ([8]; U-937, Lymphoma cells (U-937), read-out: IC50 inhibition of proliferation): 6.8 to 44.7 nM
Bottom ([8]; U-937, natural C, methanol): =0.0
Top ([8]; U-937, natural C, methanol): 67.6
Bottom ([8]; U-937, synthetic C, DMSO): 1.808
Top ([8]; U-937, synthetic C, DMSO): 61.59
Bottom ([8]; U-937, synthetic C, methanol): 0
Top ([8]; U-937, synthetic C, methanol): 60.9
